Measured values: PubChem BioAssay AID1919005 (Molecular Pharmacology Branch, DTP, NCI, 2023)
Where “and” joins values, the source holds several entries; their conditions need not be identical. Identical values can stand only once. Each block holds one molecule with its values, some of them ahead of it.

Tested on: 855422-203-R-J1-PDC complex spheroid growth
Experiment: Anticancer human tumor 855422-203-R-J1-PDC patient-derived bladder carcinoma cell line growth inhibition [AhR]
Settings: for viability, T/C: stronger effect = lower value
From the text: Multicellular complex tumor spheroid response to aryl hydrocarbon receptor antagonists in combination with a variety of drugs and investigational agents in selected tumor cell lines
The current study was undertaken to assess response to aryl hydrocarbon receptor antagonists in combination with standard-of-care drugs and investigational agents in solid tumor complex spheroid models. Complex spheroids include a stromal component modeled by human endothelial cells (HUVEC) and fibroblasts modeled by human mesenchymal stem cells (MSCs). The concentration ranges selected for each drug and investigational agent were based upon clinically achievable concentrations if the clinical Cmax of the agent was known.
Compounds. The drugs and investigational agents: BAY 2416964 (NSC825713), GNF351 (NSC835774), CH-223191 (NSC835775), CPI-455 (NSC825282), aza-TdCyd (NSC777586), decitabine (NSC127716), belinostat (NSC758774), entinostat (NSC756642), pevonedistat (NSC761192), tazemetostat (NSC777109), talazoparib (NSC765396), olaparib (NSC753686), selinexor (NSC780203), nedisertib (M3814, NSC802822), bortezomib (NSC756655), venetoclax (NSC766270), doxorubicin (NSC123127), elimusertib (BAY189344, NSC800525), ceralasertib (AZD6738, NSC777638), TAK-243 (NSC785004), alisertib (NSC759677), etoposide (NSC141540), topotecan (NSC609699), eribulin (NSC707389), gemcitabine (NSC613327), carboplatin (NSC241240), cisplatin (NSC119875), and SN-38 (NSC673596) were obtained from the National Cancer Institute (NCI) Developmental Therapeutics Program Chemical Repository (32). The FDA-approved anticancer drug set is available from the Developmental Therapeutics Program at https://dtp.cancer.gov/organization/dscb/obtaining/available plates.htm. […] The stock solutions were prepared in dimethyl sulfoxide (DMSO, Sigma-Aldrich, St. Louis, MO, cat. D2650), except for the platinum compounds which were prepared in saline (Quality Biological, Gaithersburg, MD, cat. 114-055-101), at 800-fold the tested concentration and stored at -70 degrees C prior to their use. All drugs and investigational agents were tested over a range starting from a high concentration at or near the clinical Cmax and decreasing in half-log increments. If the clinical Cmax for an agent had not been determined, the highest concentration tested was 10 microM (Table 1).
Cell Culture. All cells were maintained in an incubator at 37 degrees C and 5% CO2 with 95% humidity. The PDC lines were cultured according to standard operating procedures established by the NCI PDMR (https://pdmr.cancer.gov). Briefly, all PDCs were thawed and cultured in Matrigel-coated flasks prepared with a working solution of 1X Ham's F-12 nutrient mix, without supplementation (Invitrogen, Waltham, MA, cat. 11765054), 100 U/mL penicillin-streptomycin (Invitrogen, cat. 15140122), and 2.5% Matrigel (Corning Inc., Corning, NY, cat. 354248) for the first three passages. All PDCs were cultured in complete DMEM/F-12 media containing advanced DMEM/F-12 (Invitrogen, cat. 12634028), 4.9% defined fetal bovine serum, heat inactivated (HyClone Laboratories Inc., Logan, UT, cat. SH30070.03HI), 389 ng/mL hydrocortisone (Sigma-Aldrich, cat. H4001), 9.7 ng/mL human EGF recombinant protein (Invitrogen, cat. PHG0313), 23.4 microg/mL adenine (Sigma-Aldrich, cat. A2786), 97.3 U/mL penicillin-streptomycin (Invitrogen, cat. 15140122), 1.9 mM L-glutamine (Invitrogen, cat. 25030081), and 9.7 microM Y-27632 dihydrochloride (Tocris Bioscience, Bristol, United Kingdom, cat. 1254). The PDCs were cultured in complete DMEM/F12 media without 10 microM Y-27632 dihydrochloride for at least two passages prior to the screen. The established cell lines NCI-H1341 and […] were cultured in DMEM/F-12, HEPES (Invitrogen, cat. 11330032), 5% defined fetal bovine serum (HyClone Laboratories Inc., cat. SH30070.03), ITS premix universal culture supplement [insulin (5 microg/mL), transferrin (5 microg/mL), and selenious acid (5 ng/mL)] […]
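Further: spheroids exposed to agents for seven days before readout.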
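Wherever viability, T/C is given: percent of DMSO vehicle control luminescence viability.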

IC50 (curve of first compound, second compound 0.1 µM): 0.527 µM | IC50 (curve of first compound, second compound 0.316 µM): 0.507 µM | IC50 (curve of first compound, second compound 1 µM): 0.507 µM | IC50 (curve of first compound, second compound 3.16 µM): 0.351 µM | IC50 (curve of first compound, second compound 10 µM): 0.298 µM
SMILES: CC1COCCN1c1cc(-c2ccnn2C)c2ccnc(-c3ccn[nH]3)c2n1 (configuration not stated) + Cc1ccccc1N=Nc1ccc(NC(=O)c2ccnn2C)c(C)c1
viability, T/C (second compound 0.1 µM, first compound 0.00316 µM): 104% | viability, T/C (second compound 0.1 µM, first compound 0.01 µM): 99.4% | viability, T/C (second compound 0.1 µM, first compound 0.0316 µM): 97.7% | viability, T/C (second compound 0.1 µM, first compound 0.1 µM): 98.4% | viability, T/C (second compound 0.1 µM, first compound 0.316 µM): 67.6% | viability, T/C (second compound 0.1 µM, first compound 1 µM): 27.8% | viability, T/C (second compound 0.316 µM, first compound 0.00316 µM): 101% | viability, T/C (second compound 0.316 µM, first compound 0.01 µM): 107% | viability, T/C (second compound 0.316 µM, first compound 0.0316 µM): 97.5% | viability, T/C (second compound 0.316 µM, first compound 0.1 µM): 101% | viability, T/C (second compound 0.316 µM, first compound 0.316 µM): 68% | viability, T/C (second compound 0.316 µM, first compound 1 µM): 24.1% | viability, T/C (second compound 1 µM, first compound 0.00316 µM): 100% | viability, T/C (second compound 1 µM, first compound 0.01 µM): 106% | viability, T/C (second compound 1 µM, first compound 0.0316 µM): 91% | viability, T/C (second compound 1 µM, first compound 0.1 µM): 97.8% | viability, T/C (second compound 1 µM, first compound 0.316 µM): 66% | viability, T/C (second compound 1 µM, first compound 1 µM): 26.9% | viability, T/C (second compound 3.16 µM, first compound 0.00316 µM): 88.6% | viability, T/C (second compound 3.16 µM, first compound 0.01 µM): 86.7% | viability, T/C (second compound 3.16 µM, first compound 0.0316 µM): 87.3% | viability, T/C (second compound 3.16 µM, first compound 0.1 µM): 92.6% | viability, T/C (second compound 3.16 µM, first compound 0.316 µM): 52.7% | viability, T/C (second compound 3.16 µM, first compound 1 µM): 23% | viability, T/C (second compound 10 µM, first compound 0.00316 µM): 77.1% | viability, T/C (second compound 10 µM, first compound 0.01 µM): 83.5% | viability, T/C (second compound 10 µM, first compound 0.0316 µM): 76.4% | viability, T/C (second compound 10 µM, first compound 0.1 µM): 73% | viability, T/C (second compound 10 µM, first compound 0.316 µM): 48.7% | viability, T/C (second compound 10 µM, first compound 1 µM): 20.9%

IC50 (curve of compound): 0.00817 µM and 0.0207 µM and 0.0097 µM
SMILES: CCc1c2c(nc3ccc(O)cc13)-c1cc3c(c(=O)n1C2)COC(=O)[C@]3(O)CC
viability, T/C (compound 0.000949 µM): 96.8% and 105% and 92.3% | viability, T/C (compound 0.003 µM): 83.7% and 99.2% and 88.8% | viability, T/C (compound 0.00949 µM): 44.9% and 86.1% and 49.6% | viability, T/C (compound 0.03 µM): 14.9% and 32.5% and 16.6% | viability, T/C (compound 0.0949 µM): 8.05% and 16.5% and 9.46% | viability, T/C (compound 0.3 µM): 5.61% and 9.17% and 5.63%
